This note sets out measurements from US10538536B2, “Process for the preparation of 2-pyrazolo[1,5-a]pyrazin-2-ylpyrido[1,2-a]pyrimidin-4-one compounds” (Hoffmann-La Roche Inc., priority 2016, dated 2020).

A short description of data set [1]: relative stability of polymorphs Form A and Form F. Format: physicochemical.
Data set [2] can be described thus: genotoxicity of side-products of the process with compound (IIIa). The note with it: side-products formed when compound (IIIa) is used. From the text: According to the process herein described when compound (IIIa) is being used compounds of formulae (X) and (XI) may be produced as side-products, which are genotoxic: […]

`CCc1nc(C)cn2nc(-c3cc(=O)n4cc(C5CCN(C)CC5)cc(C)c4n3)cc12` [Form F, 2-(4-Ethyl-6-methyl-pyrazolo[1,5-a]pyrazin-2-yl)-9-methyl-7-(1-methyl-piperidin-4-yl)-pyrido[1,2-a]pyrimidin-4-one]: the drug product robustness entry in data set [1] (Form F) is on record as “improve drug product robustness”. In data set [1] (at 80° C. or below, Form F versus Form A), the “relative thermodynamic stability of polymorphs (enantiotropically related)” value is recorded as “more stable”.

Regarding `CCc1nc(C)cn2nc(-c3nc4c(C)cc(C5CCN(C)CC5)cn4c(=O)c3C(=O)CCl)cc12` [(XI)], the genotoxicity entry in data set [2] is listed as “genotoxic”.

On to `CCc1nc(C)cn2nc(-c3nc4c(C)cc(C5CCN(C)CC5)cn4c(=O)c3Cl)cc12` [(X)], for which the genotoxicity entry in data set [2] was “genotoxic”.
